Laboratory results published in publication PMC12349723, “Computationally accelerated identification of P-glycoprotein inhibitors” (PLOS One, 2025).
Blank lines part the entries; values can stand above or below the molecule they belong to.

Key:
[1] = tested on: HFL1 (human lung fibroblast) cell line; assay: MTT viability assay, inherent toxicity in non-cancerous HFL1 cells; assay type: cell-based; conditions: HFL1 cells, compound alone, mean of 8 samples
Description: The chemotherapeutic sensitive DU145 human prostate cancer cells and the multidrug resistant sub-line, DU145-TXR, were generous gifts from Dr. Evan Keller (University of Michigan, Ann Arbor, MI). The MDR, P-gp overexpressing DU145-TXR cells were maintained under positive selection pressure by supplementing complete medium with 10 nM paclitaxel (Acros Organics, NJ). […] The MDR, P-gp overexpressing A2780-ADR cell line was maintained under positive selection pressure by supplementing complete medium with 100 nM doxorubicin (Fisher Scientific, NJ). The non-cancerous HFL1 (human lung fibroblast) cell line cell line was a generous gift from Dr. Robert Harrod (Southern Methodist University, Dallas, TX) and was maintained in complete F12K media consisting of F12K with 10% fetal bovine serum, 100 U/mL penicillin, and 100 µg/mL streptomycin (Gibco). Flasks and 96 well plates that were used with the non-cancerous line HFL1 were pre-treated with 0.1 mg/ml Collagen Type 1 (Gibco) and rinsed with PBS (Fisher).
MTT assays measure the reduction of yellow, water soluble 3-(4,5-dimethylthiazol-2-yl)-2,5-diphenyltetrazolium bromide (MTT) to blue, insoluble formazan crystals by cellular reductase processes in living cells. Cells were trypsinized from monolayers and seeded in complete medium in 96 well plates. Cancerous cell lines (DU145, DU145-TXR, A2780, A2780-ADR) were seeded at 3,000 cells per well in complete RPMI medium. The non-cancerous HFL1 line was seeded at 4,000 cells per well in complete F12K medium, in collagen-treated plates (Collagen Type 1, Gibco). Cells were incubated with experimental compounds for 48 hours at 37 °C and 5% CO2 in a humidified incubator. At 48 hours, MTT was added (20 µL/well of 5 mg/mL MTT in PBS) to each well. After incubation for 4 hours, the media was removed, and the formazan crystals were dissolved in 100 µL DMSO per well. Plates containing the semi-adherent A2780 or A2780-ADR lines were spun at 1400 rpm for 3 minutes prior to aspiration of media, and the addition of DMSO. Plates were shaken for 10 minutes at 500 rpm on an Orbital shaker (LabDoctor from MidSci, St Louis, MO). The absorbance was measured at 570 nm using a Bio-Tek Cytation 5 (Bio-Tek, Winooski, VT). The measured absorbance value was correlated with the number of metabolically active cells in that well, corrected for absorbance of media. The percent of cell viability (termed ‘survival’ here) was calculated as a percentage of survival of the control condition, which refers to vehicle-treated (DMSO as vehicle) cells, or vehicle-and-chemotherapeutic-treated cells, if testing a compound’s ability to re-sensitize cells to a chemotherapeutic. Percent survival was calculated using the following equation:
% Survival=100 × absorbance of experimental cells/mean absorbance of control treated cells
For DU145-TXR, DU145, HFL1 and A2780 cells – data are the mean ± one standard deviation, 8 samples per compound, from at least two independent trials per compound. […] For A2780-ADR cells, data are the mean ± one standard deviation with 12 samples per compound, from at least two independent trials per compound.
If a P-gp inhibitor is intrinsically toxic to non-cancerous cells, it is more likely to be participating in undesirable off-target interactions. The top compounds from the screens shown above were screened for inherent toxicity using the non-cancerous HFL1 (human lung fibroblast) cell line. HFL1 cells were incubated with 15 µM compound for 48 hours, after which cell viability was assessed using MTT cell viability assays. A 20% reduction in cell viability (compared to DMSO-treated cells) was considered the maximum acceptable toxicity (see dotted line). The chemotherapeutic daunorubicin was included as a positive control for toxicity.
The top compounds from previous screens were tested against the non-cancerous HFL1 cell line.

P-gp [2] = target: T1, P-gp (Homo sapiens, UniProt P08183); assay: LC-MS/MS intracellular accumulation assay with or without tariquidar (P-gp transport substrate test) in DU145-TXR cells; assay type: in vitro ADME
T1 construct: The MDR, P-gp overexpressing DU145-TXR cells were maintained under positive selection pressure; endogenous in cells; host or cells: DU145-TXR (paclitaxel-resistant sub-line of DU145 human prostate cancer cells)
T1 sequence (P08183 whole entry): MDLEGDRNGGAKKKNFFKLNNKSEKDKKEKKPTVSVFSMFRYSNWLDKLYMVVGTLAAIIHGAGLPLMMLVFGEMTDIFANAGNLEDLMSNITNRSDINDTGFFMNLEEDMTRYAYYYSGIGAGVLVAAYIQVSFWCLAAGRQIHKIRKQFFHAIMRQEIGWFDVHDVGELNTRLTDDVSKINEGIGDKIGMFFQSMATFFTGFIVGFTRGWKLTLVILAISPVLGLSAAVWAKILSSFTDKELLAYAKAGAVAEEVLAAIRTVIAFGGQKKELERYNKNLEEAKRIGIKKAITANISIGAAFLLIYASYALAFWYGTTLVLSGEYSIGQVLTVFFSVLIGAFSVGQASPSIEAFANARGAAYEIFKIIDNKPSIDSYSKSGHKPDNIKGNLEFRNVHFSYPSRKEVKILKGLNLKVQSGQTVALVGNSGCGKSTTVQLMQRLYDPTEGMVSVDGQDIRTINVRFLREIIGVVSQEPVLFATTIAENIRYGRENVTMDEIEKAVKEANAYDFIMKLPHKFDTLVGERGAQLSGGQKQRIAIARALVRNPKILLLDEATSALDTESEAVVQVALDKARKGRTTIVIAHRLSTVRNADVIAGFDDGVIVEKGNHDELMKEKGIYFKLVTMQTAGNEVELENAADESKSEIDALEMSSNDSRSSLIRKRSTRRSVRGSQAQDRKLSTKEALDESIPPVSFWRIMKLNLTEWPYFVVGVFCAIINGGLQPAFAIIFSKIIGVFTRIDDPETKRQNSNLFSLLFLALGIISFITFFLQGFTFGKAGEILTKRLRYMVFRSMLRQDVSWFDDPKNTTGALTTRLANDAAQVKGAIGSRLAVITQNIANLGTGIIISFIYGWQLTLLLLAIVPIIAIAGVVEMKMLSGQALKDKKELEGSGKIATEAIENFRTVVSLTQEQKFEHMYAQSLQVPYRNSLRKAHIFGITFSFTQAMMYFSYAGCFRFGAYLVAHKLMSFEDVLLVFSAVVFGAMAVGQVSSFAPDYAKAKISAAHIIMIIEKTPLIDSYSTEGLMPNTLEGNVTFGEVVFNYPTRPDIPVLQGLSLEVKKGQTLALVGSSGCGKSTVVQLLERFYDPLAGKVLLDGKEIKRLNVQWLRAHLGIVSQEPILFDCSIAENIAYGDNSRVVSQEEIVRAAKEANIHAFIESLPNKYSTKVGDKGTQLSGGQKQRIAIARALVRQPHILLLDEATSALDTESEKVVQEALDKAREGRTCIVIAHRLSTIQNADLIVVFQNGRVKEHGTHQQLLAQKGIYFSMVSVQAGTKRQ
Description: DU145-TXR cells were seeded at 350,000 cells per well in 6-well plates in complete RPMI medium. […] A full sample of DAU was also prepared for quantitative analysis. […] Media was removed with a glass vacuum aspirator. Cells were re-suspended and washed in 2mL of ice-cold Hank’s Balanced Salt Solution (HBSS, Gibco), and spun again at 2400 rpm. Cell lysates were diluted in 600 µL of ice-cold HBSS, flash-frozen in liquid nitrogen, and stored at −80 °C until analysis. LC-MS/MS intracellular accumulation assays were performed in collaboration with the Pharmacology Core at the University of Texas Southwestern Medical Center (UTSW). […] This method allowed us to quantify the change – if any – in the relative amount of compound present in the samples when TQR was added. An increase in the relative amount of compound indicates enhanced intracellular retention that compound. […] The “Internal Standard” (IS) is a known substance added in a constant amount to each sample. The “Peak Area”, expressed as “counts”, describes the number of MS/MS spectra from the experimental compound and serves as a measure of its relative abundance. […] These values allow a comparison of the relative abundance of compound between the “- TQR” and “+ TQR” samples, and to test for statistically significant differences. LC-MS/MS quantification was performed as follows. Cell lysate was aliquoted into Eppendorf tubes. In contrast to [9], blank cell lysates were not spiked with varying concentrations of each compound to create a standard curve, since compound amounts were normalized to abundance of the internal standard. […] The supernatant was then transferred to an HPCL vial, and subsequently analyzed using LC-MS/MS using a Sciex 4000QTRAP mass spectrometer coupled to a Shimadzu Prominence LC. […] The column flow rate was 1.5 ml/min using an Agilent C18 XDB, 5 micron packing 50 × 4.6 mm column. […] A BSA standard curve was then prepared in water and mixed using the same ratio. […] The ratio of Analyte to Internal Standard was normalized to the lysate content for each individual sample. […] Statistical significance was determined using a Student’s T Test in GraphPad Prism. We aimed to identify P-gp inhibitors that are not transport substrates of the pump itself. […] To test these predictions in vitro, liquid chromatography with tandem mass spectrometry (LC-MS/MS) was used to assess the intracellular accumulation of experimental compounds as described in [9]. […] The relative intracellular accumulation of each experimental compound was then assessed using LC-MS/MS. […] The P-gp substrate and chemotherapeutic daunorubicin (DAU) was used as a positive control for P-gp-mediated transport.

DU145-TXR cells = conditions: cited from earlier work
DU145 cells = tested on: DU145 cells; design: method as in PMID 26516582; conditions: ref [8]; cited from earlier work
[3] = Resazurin cell viability pre-screen in DU145-TXR cells with or without PTX; assay type: cell-based; conditions: human, mean of two experiments in triplicate, read-out: Viability, 15 µM compound alone
Description: Culture of the DU145, DU145-TXR, and HFL1 cell lines was performed as described in [8]. Culture of the A2780 and A2780-ADR cell lines was performed as described in [9]. MTT assays were performed as described in [8] with minor modifications. LC-MS/MS accumulation assays were performed as described in {Nanayakkara, 2018 #173} [9] with some modifications. […] The inhibitor concentration was lowered to 15 µM here, as the goal of the study was to identify compounds that were effective in reversing MDR at low concentrations, and to determine if the expanded virtual-assisted methods improved on our first-draft attempt. Compounds 56–98 were pre-screened using Resazurin cell viability assays: cells were incubated with 15 µM compound with or without 500 nM PTX for 48 hours, after which cell survival was assessed similar to [39]. Data represent the mean of two separate experiments, with n = 3 samples per experiment (n = 6 total) (S4 Table). The top performing compounds from this initial screen were re-tested with MTT viability assays against DU145-TXR cells, as described below.
S4 Table. Pre-screening of compounds 56 – 98 against DU145-TXR cells with resazurin assays. DU145-TXR cells were incubated with 15 µM compound with or without 500nM PTX for 48 hrs; survival was subsequently determined with the Resazurin viability assay ^[37]. […] Percent re-sensitization is defined as the percent change in viability between cells treated with compound and PTX, versus cells treated with PTX alone. In some instances, the assay reported an increase in viability with compound + PTX, and no percent sensitization is reported. ‘Follow-up Testing’ compounds were re-assessed with MTT assays (Figure 1). Compounds 59 and 89 (*, ‘Follow-up Testing’) were used as negative controls in follow-up MTT assays to test for consistency of results, e.g. to confirm that molecules eliminated in Resazurin assays were justifiably eliminated from later screening with MTT assays.

[4] = SWISS-ADME computational analysis of chemical properties; conditions: predicted aqueous solubility compared to that observed in the laboratory
From the text: Identifying P-gp inhibitors that are not transport substrates remains inherently challenging. To that end, computational tools such as the SWISS-ADME server attempt to use a molecule’s unique chemical and structural characteristics to predict whether it is likely to be a P-gp transport substrate. Our LC-MS/MS assays allowed us to retroactively test the validity of predictions from SWISS-ADME. […] Alternative identifiers for the molecules identified in this study are shown in S7 Table.
S1 Table. Known P-gp Inhibitors and Predicted Chemical Properties. A non-exhaustive list of known P-gp inhibitors and their selected chemical properties ^[64, 65]. Clinical trial outcomes were adapted from ^[10, 11]. Compounds were evaluated using the SWISS-ADME server ^[54]. […] “Predicted P-gp Substrate” - predicted by SWISS-ADME to be a transport substrate of P-gp. “Known P-gp Substrate” – In addition to being P-gp inhibitors, these molecules are: known transport substrates of P-gp, known non-transport substrates of P-gp, unknown whether it is a transport substrate of P-gp ^[66-68]. If the molecule is designated in a specific generation of P-gp inhibitors - First Generation P-gp inhibitors, Second generation P-gp inhibitors, Third generation P-gp inhibitors.

P-gp [5] = target: T1, P-gp; assay: Top Hit classification from combined in vitro criteria; conditions: reverse MDR, do not increase PTX toxicity in chemo-sensitive cancer cells, non-toxic to noncancerous cells, not P-gp substrates
P-gp [6] = tested on: P-gp; design: method as in earlier work; conditions: ref [66-68]; cited from earlier work
[7] = DU145-TXR, 5 µM compound, 2.5 h, with 500 nM tariquidar, mean ± SD, triplicate
[8] = DU145-TXR, 5 µM compound, 2.5 h, without tariquidar, mean ± SD, triplicate
[9] = significant difference = likely P-gp transport substrate

Compound: COc1cccc2c1C(=O)c1c(O)c3c(c(O)c1C2=O)C[C@@](O)(C(C)=O)C[C@@H]3O[C@H]1C[C@H](N)[C@H](O)[C@H](C)O1 [Daunorubicin, reference compound]
Mean % Survival [1]: 18.1%
Intracellular accumulation (normalized ratio of compound to internal standard), Trial 1, + TQR (P-gp [2]; [7]): 0.216 ± 0.002
Intracellular accumulation (normalized ratio of compound to internal standard), Trial 2, + TQR (P-gp [2]; [7]): 0.232 ± 0.016
Intracellular accumulation (normalized ratio of compound to internal standard), Trial 1, - TQR (P-gp [2]; [8]): 0.014 ± 0.001
Intracellular accumulation (normalized ratio of compound to internal standard), Trial 2, - TQR (P-gp [2]; [8]): 0.017 ± 0.001
P (- TQR vs + TQR), Trial 2 (P-gp [2]; Student's T test of the mean): 2x10^-5
P (- TQR vs + TQR), Trial 1 (P-gp [2]; Student's T test of the mean, listed as DAU): < 1x10^-6
Significance of accumulation with tariquidar, Trial 1 (P-gp [2]; [9]): **** (P < 0.0001 = ****)
Significance of accumulation with tariquidar, Trial 2 (P-gp [2]; [9]): **** (P < 0.0001 = ****)

Compound: CC(=O)O[C@H]1C(=O)[C@@]2(C)[C@H]([C@H](OC(=O)c3ccccc3)[C@]3(O)C[C@H](OC(=O)[C@H](O)[C@@H](NC(=O)c4ccccc4)c4ccccc4)C(C)=C1C3(C)C)[C@]1(OC(C)=O)CO[C@@H]1C[C@@H]2O [Paclitaxel, paclitaxel]
Survival of DU145-TXR cells at 500 nmol/L PTX (DU145-TXR cells; 500 nmol/L PTX, ref [8]): greater than 85%
Increase in the IC50 of PTX in DU145-TXR relative to DU145 cells (DU145-TXR cells; DU145-TXR vs DU145 parental cells, ref [38]): 34 fold
Survival of DU145 parental cells at 500 nmol/L PTX (DU145 cells): less than 10%

Correct Water Solubility Prediction? [4]: Yes
Compound: Cc1cccc(C2CC(=O)c3cnn(-c4nc5ccccc5[nH]4)c3C2)c1 (stereo not shown) [Compound 79, Cc1cccc(c1)C1Cc2c(cnn2-c2nc3ccccc3[nH]2)C(=O)C1]
viability at 48 h, 15 µM [3]: 89.9%
Top Hit (P-gp [5]): No

Compound: C/C=C/C[C@@H](C)C(=O)[C@H]1C(=O)N[C@@H](C(C)C)C(=O)N(C)CC(=O)N(C)[C@@H](CC(C)C)C(=O)N[C@@H](C(C)C)C(=O)N(C)[C@@H](CC(C)C)C(=O)N[C@@H](C)C(=O)N[C@H](C)C(=O)N(C)[C@@H](CC(C)C)C(=O)N(C)[C@@H](CC(C)C)C(=O)N(C)[C@@H](C(C)C)C(=O)N1C [Valspodar]
P-gp Substrate? (known transport substrate of P-gp) (P-gp [6]): No

Compound: O[C@@H](COc1cccc2ncccc12)CN1CCN([C@@H]2c3ccccc3[C@@H]3[C@H](c4ccccc42)C3(F)F)CC1 [Zosuquidar]
P-gp Substrate? (known transport substrate of P-gp) (P-gp [6]): Yes

Compound: COC(=O)[C@H]1[C@H]2C[C@@H]3c4[nH]c5cc(OC)ccc5c4CCN3C[C@H]2C[C@@H](OC(=O)c2cc(OC)c(OC)c(OC)c2)[C@@H]1OC [Reserpine]
P-gp Substrate? (known transport substrate of P-gp) (P-gp [6]): No

Compound: C=C[C@H]1C[N@@]2CC[C@H]1C[C@@H]2[C@@H](O)c1ccnc2ccc(OC)cc12 [Quinidine]
P-gp Substrate? (known transport substrate of P-gp) (P-gp [6]): Yes
